The text below walks through data of ChEMBL document CHEMBL1128981, “A comparison of steroidal and non-steroidal inhibitors of human steroid 5-reductase: New tricyclic aryl acid inhibitors of the type-1 isozyme” (Bioorg Med Chem Lett, 1996).

pIC50, pKi: −log10 of the molar value.

Assay [1] addresses T1, 3-oxo-5-alpha-steroid 4-dehydrogenase 2 (Homo sapiens, UniProt P31213).
T1 sequence (P31213 whole entry): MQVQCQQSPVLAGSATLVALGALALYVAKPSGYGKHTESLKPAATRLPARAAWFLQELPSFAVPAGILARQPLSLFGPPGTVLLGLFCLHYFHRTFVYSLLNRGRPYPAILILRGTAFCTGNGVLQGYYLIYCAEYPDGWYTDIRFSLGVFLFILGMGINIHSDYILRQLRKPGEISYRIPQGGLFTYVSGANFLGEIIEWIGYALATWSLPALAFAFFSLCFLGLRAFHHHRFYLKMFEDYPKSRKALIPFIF
As to the kind of experiment: Inhibition of type-2 human steroid 5-alpha-reductase. As to conditions: read-out: Ki app; call rule not given here.

Assay [2] addresses T2, 3-oxo-5-alpha-steroid 4-dehydrogenase 1 (Homo sapiens, UniProt P18405).
T2 sequence (P18405 whole entry): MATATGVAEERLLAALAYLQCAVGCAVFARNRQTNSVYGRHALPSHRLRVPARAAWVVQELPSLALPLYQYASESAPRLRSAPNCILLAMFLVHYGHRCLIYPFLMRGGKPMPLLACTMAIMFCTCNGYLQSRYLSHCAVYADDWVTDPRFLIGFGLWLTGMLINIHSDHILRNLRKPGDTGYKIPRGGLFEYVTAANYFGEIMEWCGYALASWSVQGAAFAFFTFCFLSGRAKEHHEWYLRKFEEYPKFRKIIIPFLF
As to the kind of experiment: Inhibition of type-1 human steroid 5-alpha-reductase. The conditions noted are these: read-out: Ki app.

Assay [3] has as its target T3, 3-oxo-5-alpha-steroid 4-dehydrogenase 2 (Homo sapiens) (UniProt P31213).
T3 sequence (whole entry): T1 sequence (P31213 whole entry)
As to the kind of experiment: Inhibitory activity against type-2 human steroid 5-alpha-reductase at a concentration of 2.5 uM.

Assay [4] concerns the target T3, 3-oxo-5-alpha-steroid 4-dehydrogenase 2 (Homo sapiens). The conditions noted are these: 10 uM.
Description: Inhibitory activity against type-2 human steroid 5-alpha-reductase at a concentration of 10 uM
The target of assay [5] is T1, 3-oxo-5-alpha-steroid 4-dehydrogenase 2. As to the kind of experiment: Inhibitory activity against type-2 human steroid 5-alpha-reductase at a concentration of 1 uM: No inhibition.
For assay [6], the target named is T4, 3-oxo-5-alpha-steroid 4-dehydrogenase 1 (Homo sapiens) (UniProt P18405).
T4 sequence (whole entry): T2 sequence (P18405 whole entry)
As to the kind of experiment: Inhibitory activity against type-1 human steroid 5-alpha-reductase at a concentration of 2.5 uM.

The target in assay [7] is T3, 3-oxo-5-alpha-steroid 4-dehydrogenase 2 (Homo sapiens). As to conditions: 20 uM.
Description: Inhibitory activity against type-2 human steroid 5-alpha-reductase at a concentration of 20 uM
Assay [8] addresses T2, 3-oxo-5-alpha-steroid 4-dehydrogenase 1. As to the kind of experiment: Inhibitory activity against type-1 human steroid 5-alpha-reductase.
Assay [9] has as its target T1, 3-oxo-5-alpha-steroid 4-dehydrogenase 2. As to the kind of experiment: Inhibitory activity against type-2 human steroid 5-alpha-reductase.
Assay [10] has the same target. As to the kind of experiment: (§1) Inhibitory activity against type-2 human steroid 5-alpha-reductase at a concentration of 1 uM; No inhibition.
Assay [11] has the same target. The assay is described as §1. This is another data set of the same source.

Regarding `CC(C)CC(=O)[C@H]1CCC2C3CNC4=CC(=O)CC[C@]4(C)C3CC[C@@]21C` (some centres undefined), the pKi in assay [1] was 10.10.
In the case of `C[C@]12CCC(C(=O)O)=CC1=CCc1cc(Cl)ccc12`, the pKi in assay [2] is 5.92; in assay [1], 6.59.
As to `O=C(O)c1ccc2c(c1)CCc1cc(Cl)ccc1-2`, the pKi is 6.49 in assay [2] and 5.60 in assay [1]. For the same compound, in [3], the inhibition came out at 50%.
Consider `CC(C)(C)NC(=O)[C@H]1CCC2C3CC=C4C=C([PH](=O)O)CC[C@]4(C)C3CC[C@@]21C` (some centres undefined), for which the negative logarithm of the Ki (pKi) in assay [2] is 5.49; in [1], 8.89.
Consider `CC(C)N(C(=O)[C@H]1CCC2C3CC[C@H]4C=C([N+](=O)[O-])CC[C@]4(C)C3CC[C@@]21C)C(C)C` (some centres undefined), for which the pKi was 5.38 in assay [2] and 7.52 in [1].
The like results for `C[C@]12CCC([PH](=O)O)=CC1=CCc1cc(Cl)ccc12` were, in that order, 5.72 and 5.80.
On to `O=C(O)c1ccc2c(c1)CCc1ccccc1-2`, for which, in [4], the inhibition amounted to 20%. Besides, the figures for the pKi in assay [2] and in [1] were 6.50 and 5.00, respectively.
In the case of `O=C(O)c1ccc2c(c1)CCc1cc(Br)ccc1-2`, the pKi in assay [2] is 7.59; in assay [1] it was 5.00.
With `COc1cccc2c1CC[C@H]1C=C([N+](=O)[O-])CC[C@]21C`, the pKi in assay [2] is less than 5.60. Also, the Ki app entry in assay [5] is “Not Active”. The compound also displayed an inhibition in [6] of 10%.
Take `CCN(CC)C(=O)[C@H]1CC[C@H]2[C@@H]3CC[C@H]4N(C)C(=O)CC[C@]4(C)[C@H]3CC[C@]12C`: the pKi was 8.52 in assay [2] and 8.70 in assay [1].
Consider `CC1=C2NCc3cc(Cl)ccc3[C@@]2(C)CCC1=O`, for which the inhibition in assay [7] amounted to 49%. In addition, the pKi in [2] is 6.04; in assay [1], 4.70.
In the case of `CC(C)(C)NC(=O)[C@H]1CC[C@H]2[C@@H]3CC[C@H]4NC(=O)C=C[C@]4(C)[C@H]3CC[C@]12C` [FINASTERIDE], the pIC50 in [8] is 6.30; in assay [9] it was 8.38.
On to `CC(C)(C)NC(=O)[C@H]1CC[C@H]2[C@@H]3CCc4cc(C(=O)O)ccc4[C@H]3CC[C@]12C`, for which the pKi in [2] was 5.80; in assay [1], 9.40.
Regarding `O=C(O)c1ccc2c(c1)Cc1ccccc1-2`, the pKi in assay [2] is less than 5.60; in assay [1], 5.00. In addition, in assay [6], the inhibition came to 30%.
With `CN1C(=O)CC[C@]2(C)c3ccc(Cl)cc3CC[C@@H]12`, the Ki app entry in [10] and in [11] was “Not Active” throughout.

Usually pKi stands for −log10 of the Ki, conventionally taken in molar units. One may read the inhibition as the drop in the measured response relative to a control, in per cent. Read a low inhibition as a weak effect. What is called pIC50 is the IC50 on a negative log10 scale, so that one unit is a factor of ten. High values mean a small IC50, low ones a large IC50.
